Data published in ChEMBL document CHEMBL1152028, “The synthesis of 8,8-disubstituted tricyclic analogs of artemisinin” (Bioorg Med Chem Lett, 1997).
In brackets after ≈: the same amount, converted by molar mass.

These molecules were tested on Plasmodium falciparum (assay: In vitro inhibition of Plasmodium falciparum W2).
Format: functional, organism-based

SMILES	IC50 [µg/mL]
C[C@@]12CC[C@H]3CC[C@](C)(c4ccccc4)C[C@]3(CO1)OO2	0.013 (≈ 0.0451 µM)
C[C@@]12CC[C@H]3CC[C@@](C)(c4ccccc4)C[C@]3(CO1)OO2	0.132 (≈ 0.458 µM)
C[C@@H]1CC[C@H]2[C@@H](C)C(=O)O[C@@H]3O[C@@]4(C)CC[C@@H]1[C@]32OO4 [ARTEMISININ]	0.0042 (≈ 0.0149 µM)
